Patent US3984562A, “Substituted benzodiazepines and method of use” (American Cyanamid Company, priority 1975, dated 1976)
Read-outs that look alike come from different tables or passages of the source.

Experiment: protection from convulsions resulting from the administration of pentylenetetrazole (anti-anxiety test, rats, oral)
Type: in vivo
Conditions: Rattus norvegicus, read-out: Median Effective Oral Dose ED50
Procedure: The anti-anxiety properties of these compounds have been established in a test which indicates anxiolytic activity by a measure of protection from convulsions resulting from the administration of pentylenetetrazole. Graded dose levels of the compounds are administered orally, in a 2% starch vehicle, to groups of at least 5 rats. At the estimated time of peak effect, the rats are treated intravenously with pentylenetetrazole at a dose of 21 to 23 mg./kg. of body weight. This dose is estimated to cause clonic seizures in 99% of unprotected rats. The effective dose of the test compound for protection of 50% of the animals (ED50) is calculated by the method of D. H. Finney in Statistical Methods in Biological Assay, Second Edition, Hafner Publishing Co., New York, 1964, pp. 456-457. The results of this test on representative compounds of the present invention are given in the following table in comparison with meprobromate which is tested in the same manner. It has been reported [R. T. Hill and D. H. Tedeschi, "Animal Testing and Screening Procedures in Evaluating Psychotropic Drugs" in An Introduction to Psychopharmacology, Eds. R. R. Rech and K. E. Moore, Raven Press, New York, pp. 237-288 (1971)] that there is a high degree of correlation between antagonism of pentylenetetrazole seizures in rats and anti-anxiety effects in higher warm-blooded animals.

[1] = oral, 2% starch vehicle, rats (at least 5 per group), pentylenetetrazole 21 to 23 mg./kg. intravenously at estimated time of peak effect, protection of 50% of animals

SMILES | ED50 [1] [mg/kg] | ED50 (po) [mg/kg]
O=C(CCN1CCCC1)N1CC2CCCN2Cc2cc(Cl)ccc21 (single isomer, unassigned; (-)) [(-)-7-Chloro-2,3,5,10,11,11a-hexahydro-10-[3-(1-pyrrolidinyl)-propionyl]-1H-pyrrolo[2,1-c][1,4]benzodiazepine] | 7 | –
O=C(CCN1CCCC1)N1CC2CCCN2Cc2ccccc21 (single isomer, unassigned; (-)) [(-)-2,3,5,10,11,11a-Hexahydro-10-[3-(1-pyrrolidinyl)-propionyl]-1H-pyrrolo[2,1-c] [1,4]benzodiazepine] | 57 | –
O=C(CCN1CCCCC1)N1CC2CCCN2Cc2ccccc21 (single isomer, unassigned; (-)) [(-)-2,3,5,10,11,11a-Hexahydro-10-(3-piperidinopropionyl)-1H-pyrrolo[2,1-c][1,4]benzodiazepine] | 16 | –
CCCC(C)(COC(N)=O)COC(N)=O [meprobromate, reference compound] | – | 22
